Assay results from article PMC6707612, “Cyclic-di-GMP binds to histidine kinase RavS to control RavS-RavR phosphotransfer and regulates the bacterial lifestyle transition between virulence and swimming” (PLoS Pathogens, 2019).

Target: T1, RavS^ΔN (Xanthomonas campestris pv. campestris, UniProt Q8P9A6)
T1 sequence (Q8P9A6 352-697): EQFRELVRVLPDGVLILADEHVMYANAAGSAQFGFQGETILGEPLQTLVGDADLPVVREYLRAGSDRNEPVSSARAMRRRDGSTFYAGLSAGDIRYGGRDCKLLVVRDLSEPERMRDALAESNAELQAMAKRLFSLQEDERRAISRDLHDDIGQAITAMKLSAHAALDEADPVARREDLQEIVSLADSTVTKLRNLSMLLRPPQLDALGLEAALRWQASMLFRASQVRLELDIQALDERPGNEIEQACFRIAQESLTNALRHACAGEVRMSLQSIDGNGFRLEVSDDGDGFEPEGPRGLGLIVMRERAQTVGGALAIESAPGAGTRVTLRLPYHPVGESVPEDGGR
Assay: in vitro autophosphorylation assay
Format: biochemical
Details: 100 μM c-di-GMP, no RavR added
Protocol: (a) c-di-GMP enhances RavS-RavR phosphotransfer in vitro. A total of 5 μM RavS^ΔN was autophosphorylated for 15 min by the addition of 10 μCi [γ-^32P]ATP. A total of 15 μM RavR^ΔEAL or RavR^ΔEAL(D496A) was added and incubated for 30 min at 25°C. A total of 100 μM c-di-GMP was added if necessary. The reactions were terminated with 5× SDS loading buffer before autoradiography. The experiment was repeated three times. (b) Time course analyses of the impact of c-di-GMP on the velocity of RavS-RavR phosphotransfer. The autophosphorylation and phosphotransfer reactions were set as mentioned in (a). Various concentrations of c-di-GMP were added to the reactions and isotopic signals (band intensities) of RavS~P were measured after autoradiography. (c–d) c-di-GMP triggered an increase in RavS-RavR phosphotransfer in a dose-dependent manner. […] (d) The phosphorylated level of RavS^ΔN~P was quantified by ImageJ and the EC50 value was estimated by Origin 8.5 software. […] The interaction between RavS^ΔTrM and various nucleotides, including fl-c-di-GMP, fl-cGMP and fl-c-di-AMP, were measured by microscale thermophoresis (MST). A total of 20 nM fluorescein-labelled nucleotides and increasing concentrations of proteins were incubated and measured by MST. The dissociation constant (Kd) was quantified to estimate the binding affinity. […]

How did the “effect on RavS^ΔN autophosphorylation (autokinase activity)” value turn out when `Nc1nc2c(ncn2[C@@H]2O[C@@H]3COP(=O)(O)O[C@H]4[C@@H](O)[C@H](n5cnc6c(=O)[nH]c(N)nc65)O[C@@H]4COP(=O)(O)O[C@H]3[C@H]2O)c(=O)[nH]1` [c-di-GMP, Cyclic di-GMP] was run?
The value was “does not affect”.
